How the values were obtained:
[1] = biological target: T1, His6-hTGase 2 (Homo sapiens, UniProt P21980); assay: fluorimetric activity assay (substrate Z-Glu(HMC)-Gly-OH) for kinact/KI; format: biochemical; details: mean (SEM) of two to four experiments
T1 construct: purchased Zedira (Darmstadt, Germany) T022, lot 0716a
T1 sequence (P21980 1-687): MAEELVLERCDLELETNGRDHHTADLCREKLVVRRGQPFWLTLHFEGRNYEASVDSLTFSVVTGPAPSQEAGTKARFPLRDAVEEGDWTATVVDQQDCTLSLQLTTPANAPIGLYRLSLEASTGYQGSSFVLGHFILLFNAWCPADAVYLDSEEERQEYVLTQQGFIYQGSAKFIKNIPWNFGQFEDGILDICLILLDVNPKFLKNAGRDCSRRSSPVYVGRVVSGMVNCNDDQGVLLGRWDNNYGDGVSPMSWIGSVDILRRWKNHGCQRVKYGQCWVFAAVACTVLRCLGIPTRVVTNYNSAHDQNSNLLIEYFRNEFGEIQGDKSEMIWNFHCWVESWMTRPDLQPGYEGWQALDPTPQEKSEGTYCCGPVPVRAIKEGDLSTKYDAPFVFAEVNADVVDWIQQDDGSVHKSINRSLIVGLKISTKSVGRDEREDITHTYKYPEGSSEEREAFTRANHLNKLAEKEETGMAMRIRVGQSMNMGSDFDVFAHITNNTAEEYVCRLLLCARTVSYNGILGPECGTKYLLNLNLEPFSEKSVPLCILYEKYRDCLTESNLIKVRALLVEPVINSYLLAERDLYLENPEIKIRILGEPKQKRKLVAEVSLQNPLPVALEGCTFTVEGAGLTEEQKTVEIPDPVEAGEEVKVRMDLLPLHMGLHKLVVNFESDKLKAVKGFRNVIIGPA

[2] = biological target: T2, in-house produced N-terminally Twin-Strep-tagged hTGase 2 (Homo sapiens, UniProt P21980); assay: fluorescence anisotropy (FA)-based transamidase activity assay, in-house Twin-Strep-tagged hTGase 2; format: biochemical
T2 construct: thrombin cleavage site (N); made in house; host or cells: E. coli BL21(DE3)
T2 sequence (P21980 1-687): T1 sequence (P21980 1-687)
Excerpt: The gene of hTGase 2 (Uniprot ID: P21980) with an N-terminal thrombin cleavage site was cloned into the pPSG-IBA105 vector containing the sequence for an N-terminal Twin-Strep-tag (IBA Lifesciences GmbH, Göttingen, Germany) to obtain the final plasmid pPSG-IBA105/TCS-hTGase 2. The plasmid construct was verified by DNA sequencing (Eurofins Genomics Germany GmbH) and then transformed into E. coli BL21(DE3) by the heat–shock method. hTGase 2-expressing E. coli cells were lysed by lysozyme treatment, and hTGase 2 was purified by affinity chromatography on an ÄKTA purifier UPC 10 FPLC equipped with a Strep-Tactin XT cartridge (GE Healthcare Europe GmbH, Freiburg, Germany). Identity and purity of self-produced hTGase 2 were verified by SDS-PAGE and Western Blot analysis, respectively. Protein concentration was determined according to Bradford. More detailed descriptions of the generation and characterization of the final plasmid construct pPSG-IBA105/TCS-hTGase 2 and the expression, purification, and characterization of the self-produced hTGase 2 protein will be published elsewhere (manuscript in preparation).
For the analysis of inhibitor 1 on self-produced hTGase 2, 2 µg/mL of the enzyme was used to guarantee comparability with the value reported by Wodtke et al., whereas all other experiments were performed with 5 µg/mL of either commercial or self-produced hTGase 2 (corresponding to 64.1 and 61.6 nM, respectively, when assuming 100% active protein). Parallel and perpendicular fluorescence intensities were measured over 1190 s in 35 s intervals (1) or over 1776 s in 48 s intervals (2, 3) and used to calculate the FA. Data of FA for the first 875 s (1) or 384 s (2, 3) were analyzed by linear regression, with slopes corresponding to enzymatic rates. Rates in the presence of inhibitor were normalized by dividing them by the respective rate in the absence of inhibitor, and normalized rates were analyzed according to Equation (S29) in Supplementary Materials to calculate values of IC50. Data analysis was performed with Microsoft Excel (Microsoft Office Professional Plus 2016, Microsoft® Corporation, USA) and GraphPad Prism version 5.03 or version 6.07 for Windows (GraphPad Software, La Jolla, CA, USA).

## C=CC(=O)NCCCC[C@H](NC(=O)Cc1ccccc1I)C(=O)N1CCN(c2ccc([N+](=O)[O-])nc2)CC1 [Compound 2, N^α-(2-Iodophenylacetyl)-N^ε-acryloyl-L-lysin-4-(2-nitropyridin-5-yl)piperazide]
[1]
  kinact/KI: 8340 M⁻¹ s⁻¹
[2]; 5 min pre-incubation of enzyme and inhibitor, mean (SEM) of three experiments
  IC50: 116 nM
[2]; 30 min pre-incubation, hTGase 2 (in-house) 61.6 nM, mean (SEM)
  IC50: 35.2 nM
